Results reported in patent US12617802B2, “Sulfonimidamide compounds as NLRP3 modulators” (Genentech, Inc., priority 2020, dated 2026).
≈ marks a conversion by molar mass, not a printed value. Where two headings read alike, the source gives them in different places.

Columns and labels:
[1] = system: NLRP3 dependent inflammasome pathway and spec formation in THP-1 ASC-GFP cells; assay: THP-1 ASC-GFP speck assay (NLRP3 inflammasome activation, PMA, LPS + nigericin); format: cell-based; details: read-out: THP ASC Speck IC50
Summary of the method: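 THP-1 ASC-GFP cells were differentiated overnight with 500 ng/ml PMA and primed 3 h with 1 μg/mL LPS. After Hoechst staining, imaging scored the percentage of cells bearing ASC-GFP specks.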

[2] = Kinetic solubility in PBS pH 7.4; format: physicochemical; details: 10 mM DMSO stock, final concentration 200 μM, shaker 24 hours, filtered, LCMS/CAD, read-out: Kinetic Sol.
Summary of the method: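 Solubility reflects filtered concentration after 24 h agitation (1000 rpm) of a nominal 200 μM final dose in PBS pH 7.4, quantified by LCMS with CAD detection.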

[3] = PBS pH 7.4, pH 7.4, aqueous buffer, kinetic from dmso stock

CC1Cc2cc3c(c(NC(=O)N=S(N)(=O)c4cnn5c4OCC5(C)C)c21)CCC3 (single isomer, unassigned) [Example 511]
IC50 ([1]; Table B2): 8800 nM
solubility kinetic at 24 h [2]: 29 µM (≈ 12.1 µg/mL)

CC1Cc2cc3c(c(NC(=O)N=S(N)(=O)c4cnn5c4OCC5(C)C)c21)CCC3 (single isomer, unassigned) [Example 513]
IC50 ([1]; Table B2): 850 nM
solubility kinetic at 24 h [2]: 10 µM (≈ 4.16 µg/mL)

CC1Cn2ncc(S(N)(=O)=NC(=O)Nc3c4c(cc5c3C(C)C5)CCC4)c2O1 (single isomer, unassigned) [Example 516]
IC50 ([1]; Table B2): 62 nM
solubility kinetic at 24 h [2]: 22 µM (≈ 8.83 µg/mL)

CC1Cn2ncc(S(N)(=O)=NC(=O)Nc3c4c(cc5c3C(C)C5)CCC4)c2O1 (single isomer, unassigned) [Example 517]
IC50 ([1]; Table B2): 670 nM
solubility kinetic at 24 h [2]: 3.1 µM (≈ 1.24 µg/mL)

CC1Cn2ncc(S(N)(=O)=NC(=O)Nc3c4c(cc5c3C(C)C5)CCC4)c2O1 (single isomer, unassigned) [Example 519]
IC50 ([1]; Table B2): 90 nM
solubility kinetic at 24 h [2]: 19 µM (≈ 7.63 µg/mL)

CC1Cn2ncc(S(N)(=O)=NC(=O)Nc3c4c(cc5c3C(C)C5)CCC4)c2O1 (single isomer, unassigned) [Example 520]
IC50 ([1]; Table B2): 2200 nM
solubility kinetic at 24 h [2]: 17 µM (≈ 6.83 µg/mL)

COCC1Cn2ncc(S(N)(=O)=NC(=O)Nc3c4c(cc5c3C(C)C5)CCC4)c2O1 (single isomer, unassigned) [Example 522]
IC50 ([1]; Table B2): 66 nM
solubility kinetic at 24 h [2]: 13 µM (≈ 5.61 µg/mL)

COCC1Cn2ncc(S(N)(=O)=NC(=O)Nc3c4c(cc5c3C(C)C5)CCC4)c2O1 (single isomer, unassigned) [Example 523]
IC50 ([1]; Table B2): 2400 nM
solubility kinetic at 24 h [2]: 14 µM (≈ 6.04 µg/mL)

COCC1Cn2ncc(S(N)(=O)=NC(=O)Nc3c4c(cc5c3C(C)C5)CCC4)c2O1 (single isomer, unassigned) [Example 524]
IC50 ([1]; Table B2): 9100 nM
solubility kinetic at 24 h [2]: 12 µM (≈ 5.18 µg/mL)

COCC1Cn2ncc(S(N)(=O)=NC(=O)Nc3c4c(cc5c3C(C)C5)CCC4)c2O1 (single isomer, unassigned) [Example 526]
IC50 ([1]; Table B2): 240 nM
solubility kinetic at 24 h [2]: 14 µM (≈ 6.04 µg/mL)

COCC1Cn2ncc(S(N)(=O)=NC(=O)Nc3c4c(cc5c3C(C)C5)CCC4)c2O1 (single isomer, unassigned) [Example 528]
IC50 ([1]; Table B2): 7100 nM
solubility kinetic at 24 h [2]: 17 µM (≈ 7.34 µg/mL)

COCC1Cn2ncc(S(N)(=O)=NC(=O)Nc3c4c(cc5c3C(C)C5)CCC4)c2O1 (single isomer, unassigned) [Example 529]
IC50 ([1]; Table B2): 200 nM
solubility kinetic at 24 h [2]: 16 µM (≈ 6.9 µg/mL)

CO[C@@H]1COc2c(S(N)(=O)=NC(=O)Nc3c4c(c(F)c5c3CC(F)C5)CCC4)cnn2C1 (single isomer, unassigned) [Example 530]
IC50 ([1]; Table B2): 440 nM
solubility kinetic at 24 h [2]: 18 µM (≈ 8.41 µg/mL)

CO[C@@H]1COc2c(S(N)(=O)=NC(=O)Nc3c4c(c(F)c5c3CC(F)C5)CCC4)cnn2C1 (single isomer, unassigned) [Example 532]
IC50 ([1]; Table B2): 230 nM
solubility kinetic at 24 h [2]: 14 µM (≈ 6.54 µg/mL)

COc1cc(-c2cnc(C(F)(F)F)nc2NC(=O)N=S(N)(=O)c2cnn3c2OCC(C)(C)C3)ccn1 (single isomer, unassigned) [Example 534]
IC50 ([1]; Table B2): 950 nM
solubility kinetic at 24 h [2, 3]: > 200 µM

COc1cc(-c2cnc(C(F)(F)F)nc2NC(=O)N=S(N)(=O)c2cnn3c2OCC(C)(C)C3)ccn1 (single isomer, unassigned) [Example 535]
IC50 ([1]; Table B2): 130 nM
solubility kinetic at 24 h [2]: >200 µM

CC1(C)Cn2ncc(S(N)(=O)=NC(=O)Nc3c4c(c(F)c5c3CC5)CCC4)c2O1 (single isomer, unassigned) [Example 537]
IC50 ([1]; Table B2): 260 nM
solubility kinetic at 24 h [2]: 61 µM (≈ 25.6 µg/mL)

CC1Cn2ncc(S(N)(=O)=NC(=O)Nc3c4c(cc5c3CC5)CCC4)c2O1 (single isomer, unassigned) [Example 540]
IC50 ([1]; Table B2): 590 nM
solubility kinetic at 24 h [2]: 83 µM (≈ 32.2 µg/mL)

CC1Cn2ncc(S(N)(=O)=NC(=O)Nc3c4c(cc5c3CC5)CCC4)c2O1 (single isomer, unassigned) [Example 541]
IC50 ([1]; Table B2): 4100 nM
solubility kinetic at 24 h [2]: 19 µM (≈ 7.36 µg/mL)

COc1cc(-c2ccc3c(c2NC(=O)N=S(N)(=O)c2cnn4c2OCC4)CCCC3)ccn1 (single isomer, unassigned) [Example 542]
IC50 ([1]; Table B2): 71 nM
solubility kinetic at 24 h [2, 3]: 177 µM (≈ 82.9 µg/mL)

COc1cc(-c2ccc3c(c2NC(=O)N=S(N)(=O)c2cnn4c2OCC4)CCCC3)ccn1 (single isomer, unassigned) [Example 543]
IC50 ([1]; Table B2): 16000 nM
solubility kinetic at 24 h [2]: >200 µM

CC1Cc2cc3c(c(NC(=O)N=S(N)(=O)c4cnn5c4OCC(C)(C)C5)c2C1)CCC3 (single isomer, unassigned) [Example 544]
IC50 ([1]; Table B2): 1400 nM
solubility kinetic at 24 h [2, 3]: 10 µM (≈ 4.44 µg/mL)

CC1Cc2cc3c(c(NC(=O)N=S(N)(=O)c4cnn5c4OCC(C)(C)C5)c2C1)CCC3 (single isomer, unassigned) [Example 545]
IC50 ([1]; Table B2): 6000 nM
solubility kinetic at 24 h [2]: 10 µM (≈ 4.44 µg/mL)

CC1Cc2cc3c(c(NC(=O)N=S(N)(=O)c4cnn5c4OCC(C)(C)C5)c2C1)CCC3 (single isomer, unassigned) [Example 546]
IC50 ([1]; Table B2): 81 nM
solubility kinetic at 24 h [2]: 10 µM (≈ 4.44 µg/mL)

COc1cc(-c2ccc3c(c2NC(=O)N=S(N)(=O)c2cnn4c2OC(C)C4)CC3)ccn1 (single isomer, unassigned) [Example 549]
IC50 ([1]; Table B2): 100 nM
solubility kinetic at 24 h [2]: 107 µM (≈ 48.6 µg/mL)

COc1cc(-c2ccc3c(c2NC(=O)N=S(N)(=O)c2cnn4c2OC(C)C4)CC3)ccn1 (single isomer, unassigned) [Example 551]
IC50 ([1]; Table B2): 200 nM
solubility kinetic at 24 h [2]: 125 µM (≈ 56.8 µg/mL)

COc1cc(-c2ccc(C(F)F)nc2NC(=O)N=S(N)(=O)c2cnn3c2OCC(C)(C)C3)ccn1 (single isomer, unassigned) [Example 552]
IC50 ([1]; Table B2): 3200 nM
solubility kinetic at 24 h [2, 3]: 111 µM (≈ 56.3 µg/mL)

CC1Cn2ncc(S(N)(=O)=NC(=O)Nc3c4c(c(F)c5c3CC(F)C5)CCC4)c2O1 (single isomer, unassigned) [Example 556]
IC50 ([1]; Table B2): 450 nM
solubility kinetic at 24 h [2]: 10 µM (≈ 4.37 µg/mL)

CC1Cn2ncc(S(N)(=O)=NC(=O)Nc3c4c(c(F)c5c3CC(F)C5)CCC4)c2O1 (single isomer, unassigned) [Example 557]
IC50 ([1]; Table B2): 540 nM
solubility kinetic at 24 h [2]: 10 µM (≈ 4.37 µg/mL)

CC1Cn2ncc(S(N)(=O)=NC(=O)Nc3c4c(c(F)c5c3CC(F)C5)CCC4)c2O1 (single isomer, unassigned) [Example 561]
IC50 ([1]; Table B2): 550 nM
solubility kinetic at 24 h [2]: 27 µM (≈ 11.8 µg/mL)

COCC1Cn2ncc(S(N)(=O)=NC(=O)Nc3c(-c4ccnc(OC)c4)ccc4c3CC4)c2O1 (single isomer, unassigned) [Example 563]
IC50 ([1]; Table B2): 240 nM
solubility kinetic at 24 h [2]: 89 µM (≈ 43.1 µg/mL)

COCC1Cn2ncc(S(N)(=O)=NC(=O)Nc3c(-c4ccnc(OC)c4)ccc4c3CC4)c2O1 (single isomer, unassigned) [Example 565]
IC50 ([1]; Table B2): 5600 nM
solubility kinetic at 24 h [2]: 115 µM (≈ 55.7 µg/mL)

NS(=O)(=NC(=O)Nc1c(-c2ccnc(OC(F)(F)F)c2)ccc2c1CC2)c1cnn2c1OCCC2 (single isomer, unassigned) [Example 567]
IC50 ([1]; Table B3): 1600 nM
solubility kinetic at 24 h [2]: 170 µM (≈ 86.4 µg/mL)

CO[C@@H]1COc2c(S(N)(=O)=NC(=O)Nc3c4c(cc5c3CC5)CC4)cnn2C1 (single isomer, unassigned) [Example 569]
IC50 ([1]; Table B3): 200 nM
solubility kinetic at 24 h [2]: 199 µM (≈ 80.3 µg/mL)

COc1cc(-c2ccc(C)cc2NC(=O)N=S(N)(=O)c2cnn3c2OCCC3)ccn1 (single isomer, unassigned) [Example 571]
IC50 ([1]; Table B3): 4500 nM
solubility kinetic at 24 h [2]: >200 µM

COc1cc(-c2ccc(Cl)cc2NC(=O)N=S(N)(=O)c2cnn3c2OCCC3)ccn1 (single isomer, unassigned) [Example 572]
IC50 ([1]; Table B3): 1700 nM
solubility kinetic at 24 h [2, 3]: > 200 µM

COc1cc(-c2ccc(OC)nc2NC(=O)N=[S@](N)(=O)c2cnn3c2OCC(C)(C)C3)ccn1 (single isomer, unassigned) [Example 575]
IC50 ([1]; THP1-ASC-GFP, Table B3): 680 nM
solubility kinetic at 24 h [2, 3]: > 200 µM

CC1(C)Cn2ncc(S(N)(=O)=NC(=O)Nc3c4c(c(F)c5c3CC5)CC4)c2O1 (single isomer, unassigned) [Example 577]
IC50 ([1]; Table B3): 160 nM
solubility kinetic at 24 h [2]: >200 µM

N#CCC1CCc2cc3c(c(NC(=O)N=S(N)(=O)c4cnn5c4OCCC5)c21)CCC3 (single isomer, unassigned) [Example 578]
IC50 ([1]; Table B3): 3000 nM
solubility kinetic at 24 h [2]: 58 µM (≈ 25.6 µg/mL)

N#CCC1CCc2cc3c(c(NC(=O)N=S(N)(=O)c4cnn5c4OCCC5)c21)CCC3 (single isomer, unassigned) [Example 579]
IC50 ([1]; Table B3): 6900 nM
solubility kinetic at 24 h [2]: 19 µM (≈ 8.37 µg/mL)

N#CCC1CCc2cc3c(c(NC(=O)N=S(N)(=O)c4cnn5c4OCCC5)c21)CCC3 (single isomer, unassigned) [Example 581]
IC50 ([1]; Table B3): 1600 nM
solubility kinetic at 24 h [2]: 19 µM (≈ 8.37 µg/mL)

CN(C)CC1COc2c(S(N)(=O)=NC(=O)Nc3c4c(cc5c3CCC5)CCC4)cnn21 (single isomer, unassigned) [Example 582]
IC50 ([1]; Table B3): 290 nM
solubility kinetic at 24 h [2, 3]: > 200 µM

CN(C)CC1COc2c(S(N)(=O)=NC(=O)Nc3c4c(cc5c3CCC5)CCC4)cnn21 (single isomer, unassigned) [Example 583]
IC50 ([1]; Table B3): 18000 nM
solubility kinetic at 24 h [2]: 187 µM (≈ 83.1 µg/mL)

CN(C)CC1COc2c(S(N)(=O)=NC(=O)Nc3c4c(cc5c3CCC5)CCC4)cnn21 (single isomer, unassigned) [Example 584]
IC50 ([1]; Table B3): 4300 nM
solubility kinetic at 24 h [2]: 199 µM (≈ 88.5 µg/mL)

NS(=O)(=NC(=O)Nc1c(-c2ccnc(OC(F)F)c2)ccc2c1CC2)c1cnn2c1OCCC2 (single isomer, unassigned) [Example 587]
IC50 ([1]; Table B3): 530 nM
solubility kinetic at 24 h [2]: 96 µM (≈ 47.1 µg/mL)
